Test system: Spontaneously hypertensive rats (SHR)
Experiment: Acute Efficacy in Spontaneously Hypertensive Rats (SHR), telemetry blood pressure
Type: in vivo, rat
Details: dose 0.3 mpk
Source text: Acute Efficacy in Spontaneously Hypertensive Rats (SHR)
Spontaneously hypertensive rats (SHR, male, Charles River) were implanted with DSI TA11PA-C40 telemetry device (Data Sciences, Inc., St. Paul, Minn.) under isoflurane or ketamine/metomidine anesthesia. The telemetry unit catheter was inserted into the descending aorta via the femoral artery and the telemetry device was implanted subcutaneously in the left flank area. Animals were allowed to recover from surgery for 14 days before the start of any studies. Blood pressure, heart rate, and activity signals from conscious, freely moving rats were recorded continuously for 30 seconds every 10 minutes. On the day prior to administration of compound, a single oral dose of vehicle (10% transcutol/20% Cremophor/70% water) was administered to all animals to establish baseline control data. The blood pressure lowering efficacy of compound (PO) or vehicle was evaluated following a single oral gavage. Data were collected as hourly averages, and changes in blood pressure were calculated by subtracting control baseline data on an hourly basis. Animals were maintained on normal diet with a 12 hour light-dark cycle.
Maximum peak decreases of systolic blood pressure (SBP) in SHR at a particular P.O. dose (mpk milligrams per kilogram) for the following representative compounds are provided.

SMILES	Maximum SBP reduction [mmHg]
Cc1nnc(C2(C)C(=O)Nc3nc(-c4nn(CCC(F)(F)C(F)(F)F)c5ncccc45)nc(N)c32)o1 (centres unmarked) [Example 169, 4-Amino-5-Methyl-5-(5-Methyl-1,3,4-Oxadiazol-2-yl)-2-[1-(3,3,4,4,4-Pentafluorobutyl)-1H-Pyrazolo[3,4-B]Pyridin-3-yl]-5,7-Dihydro-6H-Pyrrolo[2,3-D]Pyrimidin-6-One]	52 ± 5

Same assay, conditions: single oral dose 0.1 mpk P.O.

SMILES	Maximum peak decrease of systolic blood pressure (SBP) in SHR, Category
CC1(c2nnc(C(F)F)o2)C(=O)Nc2nc(-c3nn(CCC(F)(F)C(F)(F)F)c4ncccc34)nc(N)c21 (centres unmarked) [Example 212, 4-amino-5-[5-(difluoromethyl)-1,3,4-oxadiazol-2-yl]-5-methyl-2-[1-(3,3,4,4.4-pentafluorobutyl)-1H-pyrazolo[3,4-b]pyridin-3-yl]-5,7-dihydro-6H-pyrrolo(2,3-d]pyrimidin-6-one]	B (Category B=SBP in SHRs 25-40 mmHg)
CC1(C(=O)NC2CC2)C(=O)Nc2nc(-c3nn(CCC(F)(F)C(F)(F)F)c4nc(Cl)ccc34)nc(N)c21 (centres unmarked) [Example 176, 4-Amino-2-(6-Chloro-1-(3,3,4,4,4-Pentafluorobutyl)-1H-Pyrazolo[3,4-B]Pyridin-3-yl)-N-Cyclopropyl-5-Methyl-6-Oxo-6,7-Dihydro-5H-Pyrrolo[2,3-D]Pyrimidine-5-Carboxamide]	C (Category C=SBP in SHRs>40 mmHg)
Cc1ccc2c(-c3nc(N)c4c(n3)NC(=O)C4(C)C(=O)NC3CC3)nn(CCC(F)(F)C(F)(F)F)c2n1 (centres unmarked) [Example 179, 4-Amino-N-Cyclopropyl-5-Methyl-2-(6-Methyl-1-(3,3,4,4,4-Pentafluorobutyl)-1H-Pyrazolo[3,4-B]Pyridin-3-yl)-6-Oxo-6,7-Dihydro-5H-Pyrrolo[2,3-D]Pyrimidine-5-Carboxamide]	B (Category B=SBP in SHRs 25-40 mmHg)
COc1ccc2c(-c3nc(N)c4c(n3)NC(=O)C4(C)C(=O)NC3CC3)nn(CCC(F)(F)C(F)(F)F)c2n1 (centres unmarked) [Example 178, 4-Amino-N-Cyclopropyl-2-(6-Methoxy-1-(3,3,4,4,4-Pentafluorobutyl)-1H-Pyrazolo[3,4-B]Pyridin-3-yl)-5-Methyl-6-Oxo-6,7-Dihydro-5H-Pyrrolo[2,3-D]Pyrimidine-5-Carboxamide]	A (Category A=SBP in SHRs<25 mmHg)

Same assay, conditions: single oral dose 0.3 mpk P.O.

SMILES	Maximum peak decrease of systolic blood pressure (SBP) in SHR, Category
CNc1nc(-c2nn(CCC(F)(F)C(F)(F)F)c3ncccc23)nc2c1C(C)(c1nnc(C3CC3)o1)C(=O)N2 (centres unmarked) [Example 261, 5-(5-cyclopropyl-1,3,4-oxadiazol-2-yl)-5-methyl-4-(methylamino)-2-[1-(3,3,4,4,4-pentafluorobutyl)-1H-pyrazolo[3,4-b]pyridin-3-yl]-5,7-dihydro-6H-pyrrolo[2,3-d]pyrimidin-6-one]	C (Category C=SBP in SHRs>40 mmHg)
CC1(C(=O)NC2CC2)C(=O)Nc2nc(-c3nc(CCC(F)(F)C(F)(F)F)n4cc(F)ccc34)nc(N)c21 (centres unmarked) [Example 252, 4-amino-H-cyclopropyl-2-[6-fluoro-3-(3,3,4,4,4-pentafluorobutyl)imidazo[1,5-a]pyridin-1-yl]-5-methyl-6-oxo-6,7-dihydro-5H-pyrrolo[2,3-d]pyrimidine-5-carboxamide]	B (Category B=SBP in SHRs 25-40 mmHg)
CC1(c2nnc(C3CC3)o2)C(=O)Nc2nc(-c3nc(CCC(F)(F)C(F)(F)F)n4ncccc34)nc(N)c21 (centres unmarked) [Example 255, 4-amino-5-(5-cyclopropyl-1,3,4-oxadiazol-2-yl)-5-methyl-2-[7-(3,3,4,4,4-pentafluorobutyl)imidazo[1,5-b]pyridazin-5-yl]-5,7-dihydro-6H-pyrrolo[2,3-d]pyrimidin-6-one]	B (Category B=SBP in SHRs 25-40 mmHg)
CC(C)n1nc(C2(C)C(=O)Nc3nc(-c4nn(CCC(F)(F)C(F)(F)F)c5cc(Cl)ccc45)nc(N)c32)oc1=S (centres unmarked) [Example 172, 4-Amino-2-[6-Chloro-1-(3,3,4,4,4-Pentafluorobutyl)-1H-Indazol-3-yl]-5-Methyl-5-[4-(Propan-2-yl)-5-Thioxo-4,5-Dihydro-1,3,4-Oxadiazol-2-yl]-5,7-Dihydro-6H-Pyrrolo[2,3-D]Pyrimidin-6-One]	A (Category A=SBP in SHRs<25 mmHg)
CC1(C(=O)Nc2ccccc2)C(=O)Nc2nc(-c3nn(CCC(F)(F)C(F)(F)F)c4cc(Cl)ccc34)nc(N)c21 (centres unmarked) [Example 165, 4-Amino-2-[6-Chloro-1-(3,3,4,4,4-Pentafluorobutyl)-1H-Indazol-3-yl]-5-Methyl-6-Oxo-N-Phenyl-6,7-Dihydro-5H-Pyrrolo[2,3-D]Pyrimidine-5-Carboxamide]	B (Category B=SBP in SHRs 25-40 mmHg)
CC(C)c1nnc(C2(C)C(=O)Nc3nc(-c4nn(CCC(F)(F)C(F)(F)F)c5ncccc45)nc(N)c32)o1 (centres unmarked) [Example 213, 4-amino-5-methyl-5-[5-(1-methylethyl)-1,3,4-oxadiazol-2-yl]-2-[1-(3,3,4,4,4-pentafluorobutyl)-1H-pyrazolo[3,4-b]pyridin-3-yl]-5,7-dihydro-6H-pyrrolo[2,3-d]pyrimidin-6-one]	C (Category C=SBP in SHRs>40 mmHg)
CNC(=O)C1(C)C(=O)Nc2nc(-c3nn(CCC(F)(F)C(F)(F)F)c4ncccc34)nc(NC)c21 (centres unmarked) [Example 259, N,5-dimethyl-4-(methylamino)-6-oxo-2-[1-(3,3,4,4,4-pentafluorobutyl)-1H-pyrazolo[3,4-b]pyridin-3-yl]-6,7-dihydro-5H-pyrrolo[2,3-d]pyrimidine-5-carboxamide]	A (Category A=SBP in SHRs<25 mmHg)
CNc1nc(-c2nn(CCC(F)(F)C(F)(F)F)c3cc(Cl)ccc23)nc2c1C(C)(C(=O)NC1CC1)C(=O)N2 (centres unmarked) [Example 257, 2-[6-chloro-1-(3,3,4,4,4-pentafluorobutyl)-1H-indazol-3-yl)-N-cyclopropyl-5-methyl-4-(methylamino)-6-oxo-6,7-dihydro-5H-pyrrolo[2,3-d]pyrimidine-5-carboxamide]	A (Category A=SBP in SHRs<25 mmHg)
Cc1nnc(C2(C)C(=O)Nc3nc(-c4nn(CCC(F)(F)C(F)(F)F)c5ncccc45)nc(N)c32)o1 (centres unmarked) [Example 169, 4-Amino-5-Methyl-5-(5-Methyl-1,3,4-Oxadiazol-2-yl)-2-[1-(3,3,4,4,4-Pentafluorobutyl)-1H-Pyrazolo[3,4-B]Pyridin-3-yl]-5,7-Dihydro-6H-Pyrrolo[2,3-D]Pyrimidin-6-One]	C (Category C=SBP in SHRs>40 mmHg)
CC1(c2ccccn2)C(=O)Nc2nc(-c3nn(CCC(F)(F)F)c4ncccc34)nc(N)c21 (centres unmarked) [Example 232, 4-amino-5-methyl-5-pyridin-2-yl-2-[1-(3,3,3-trifluoropropyl)-1H-pyrazolo[3,4-b]pyridin-3-yl]-5,7-dihydro-6H-pyrrolo[2,3-d]pyrimidin-6-one]	B (Category B=SBP in SHRs 25-40 mmHg)
CNc1nc(-c2nn(CCCC(F)(F)F)c3ncccc23)nc2c1C(C)(C(=O)NC1CC1)C(=O)N2 (centres unmarked) [Example 264, N-cyclopropyl-5-methyl-4-(methylamino)-6-oxo-2-[1-(4,4,4-trifluorobutyl)-1H-pyrazolo[3,4-b]pyridin-3-yl]-6,7-dihydro-5H-pyrrolo[2,3-d]pyrimidine-5-carboxamide]	B (Category B=SBP in SHRs 25-40 mmHg)

Same assay, conditions: single oral dose 1 mpk P.O.

SMILES	Maximum peak decrease of systolic blood pressure (SBP) in SHR, Category
NC(=O)C1(C2CC2)C(=O)Nc2nc(-c3nn(CCCC(F)(F)F)c4ncccc34)nc(N)c21 (centres unmarked) [Example 247, 4-amino-5-cyclopropyl-6-oxo-2-[1-(4,4,4-trifluorobutyl)-1H-pyrazolo[3,4-b]pyridin-3-yl]-6,7-dihydro-5H-pyrrolo[2,3-d]pyrimidine-5-carboxamide]	C (Category C=SBP in SHRs>40 mmHg)
